Experiment [1] addresses T1, human GPR139 receptor (Homo sapiens, UniProt Q6DWJ6).
T1 construct: expressed in transfected cells; host or cells: T-REx-CHO (Thermo Fisher Scientific), doxycycline-induced
T1 sequence (Q6DWJ6 1-353): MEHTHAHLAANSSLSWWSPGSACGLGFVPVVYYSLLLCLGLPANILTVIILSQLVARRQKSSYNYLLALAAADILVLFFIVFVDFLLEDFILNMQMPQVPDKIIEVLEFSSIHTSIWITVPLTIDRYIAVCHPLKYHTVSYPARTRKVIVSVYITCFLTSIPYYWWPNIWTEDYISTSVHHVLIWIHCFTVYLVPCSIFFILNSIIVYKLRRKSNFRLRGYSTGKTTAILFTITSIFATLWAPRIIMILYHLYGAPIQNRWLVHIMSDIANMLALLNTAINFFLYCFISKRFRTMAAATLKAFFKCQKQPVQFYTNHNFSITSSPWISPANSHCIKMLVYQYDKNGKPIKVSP
The experiment is described as follows: GPR139 Competition Binding (membrane-based, tritium-labeled ligand). The following applies: T-REx-CHO membranes with human GPR139; 6.5 nM tritium-labeled ligand; 11-point curve, 30 μM maximum concentration; read-out: GPR139 Binding Affinity (pKi) (converted). The method, boiled down:
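Membranes came from doxycycline-induced T-REx-CHO cells expressing human GPR139. They were incubated 20 min at room temperature with 6.5 nM tritiated ligand and compound (11 points, top 30 μM) in HEPES pH 7.3 buffer with MgCl2/CaCl2. Filter-bound counts gave Ki by four-parameter fit, reported as pKi.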

In experiment [2] the target is T1, human GPR139 receptor. Nature of the experiment: Measurement of GPR139 Activation Via Calcium Signaling (FLIPR, T-REx-CHO cells). The following applies: T-REx-CHO cells stably expressing human GPR139, 11-point dose response, 10 μM maximum concentration, read-out: GPR139 Potency (pEC50) (converted). Type of experiment: cell-based. The method, boiled down:
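Calcium flux read by FLIPR for 1 min after adding compounds (11 concentrations, maximum 10 μM) to doxycycline-induced (2 μg/mL, 17 h) T-REx-CHO cells expressing human GPR139. Cells dye-loaded 40 min at 37 °C in HBSS, 1 mM HEPES pH 7.4 with probenecid; activation reported as pEC50 from four-parameter logistic fit.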

Structures are written as SMILES.

For `Cc1ccc([C@H](C)NC(=O)Cn2ncc3ccn(C)c3c2=O)c(F)c1` [Example 165, (S)—N-(1-(2-fluoro-4-methylphenyl)ethyl)-2-(1-methyl-7-oxo-1,7-dihydro-6H-pyrrolo[2,3-d]pyridazin-6-yl)acetamide], on human GPR139 receptor [1], the Ki is 70.8 nM. Moreover, the EC50 on human GPR139 receptor [2] is 12.6 nM.

As to `[2H]C([2H])([2H])c1ccc([C@H](C)NC(=O)Cn2ncc3c(cnn3C(C)C)c2=O)cc1` [Example 166, (S)-2-(1-isopropyl-4-oxo-1,4-dihydro-5H-pyrazolo[3,4-d]pyridazin-5-yl)-N-(1-(4-(methyl-d3)phenyl)ethyl)acetamide], at human GPR139 receptor [1], the Ki is 2340 nM. The EC50 at human GPR139 receptor [2] was 53.7 nM.

Consider `[2H]C([2H])([2H])c1ccc([C@H](C)NC(=O)Cn2ncc3c(c(C)nn3C3CC3)c2=O)cc1` [Example 167, (S)-2-(1-cyclopropyl-3-methyl-4-oxo-1,4-dihydro-5H-pyrazolo[3,4-d]pyridazin-5-yl)-N-(1-(4-(methyl-d3)phenyl)ethyl)acetamide], for which the Ki at human GPR139 receptor [1] was 316 nM. Also, at human GPR139 receptor [2], the EC50 is 63.1 nM.

With `[2H]C([2H])([2H])c1ccc([C@H](C)NC(=O)Cn2ncc3c(c(C)nn3C(C)C)c2=O)cc1` [Example 168, (S)-2-(1-isopropyl-3-methyl-4-oxo-1,4-dihydro-5H-pyrazolo[3,4-d]pyridazin-5-yl)-N-(1-(4-(Methyl-d3)phenyl)ethyl)acetamide], the Ki on human GPR139 receptor [1] was 380 nM. Also, the EC50 at human GPR139 receptor [2] is 43.7 nM.

As for `Cc1ccc([C@H](C)NC(=O)Cn2ncc3c(c(C(F)(F)F)nn3C)c2=O)cc1` [Example 169, (S)-2-(1-methyl-4-oxo-3-(trifluoromethyl)-1,4-dihydro-5H-pyrazolo[3,4-d]pyridazin-5-yl)-N-(1-(p-tolyl)ethyl)acetamide], the Ki on human GPR139 receptor [1] is 75.9 nM. The EC50 on human GPR139 receptor [2] is 51.3 nM.

For `Cc1ccc([C@H](C)NC(=O)Cn2ncc3c(c(C(F)(F)F)nn3C)c2=O)c(F)c1` [Example 170, (S)—N-(1-(2-fluoro-4-methylphenyl)ethyl)-2-(1-methyl-4-oxo-3-(trifluoromethyl)-1,4-dihydro-5H-pyrazolo[3,4-d]pyridazin-5-yl)acetamide], on human GPR139 receptor [1], the Ki was 20.9 nM. Besides, the EC50 on human GPR139 receptor [2] was 72.4 nM.

As for `Cc1ccc([C@H](C)NC(=O)Cn2ncc3c(c(C(F)(F)F)nn3C)c2=O)cc1F` [Example 171, (S)—N-(1-(3-fluoro-4-methylphenyl)ethyl)-2-(1-methyl-4-oxo-3-(trifluoromethyl)-1,4-dihydro-5H-pyrazolo[3,4-d]pyridazin-5-yl)acetamide], the Ki at human GPR139 receptor [1] was 24 nM. The EC50 at human GPR139 receptor [2] was 41.7 nM.

As to `C[C@H](NC(=O)Cn1ncc2c(c(C(F)(F)F)nn2C)c1=O)c1ccc(C(F)(F)F)cc1` [Example 172, (S)-2-(1-methyl-4-oxo-3-(trifluoromethyl)-1,4-dihydro-5H-pyrazolo[3,4-d]pyridazin-5-yl)-N-(1-(4-(trifluoromethyl)phenyl)ethyl)acetamide], the Ki on human GPR139 receptor [1] is 178 nM. Also, the EC50 on human GPR139 receptor [2] was 93.3 nM.

With `[2H]C([2H])([2H])c1ccc([C@H](C)NC(=O)Cn2ncc3ccn(C)c3c2=O)cc1` [Example 174, (S)-2-(1-methyl-7-oxo-1,7-dihydro-6H-pyrrolo[2,3-d]pyridazin-1-yl)-N-(1-(4-(methyl-d3)phenyl)ethyl)acetamide], the Ki on human GPR139 receptor [1] was 234 nM. For the same molecule, the EC50 at human GPR139 receptor [2] was 17.8 nM.
